Experimental data taken from ChEMBL document CHEMBL5055687, “Improved 5-HT2 Selective Receptor Modulators for the Treatment of Psychological Disorders” (ACS Med Chem Lett, 2021).

Experiments:
Format in all cases: cell-based
[1] = biological target: T1, 5-hydroxytryptamine receptor 2A (Homo sapiens, UniProt P28223); test: Modulation of human 5HT2A expressed in HEK293T cells co-transfected with Galphaq-RLuc8, Ggamma1-GFP2 and Gbeta1 assessed as dissociation of Galphaq from Ggamma1 preincubated for 1 hr followed by addition of coelenterazine 400a substrate and measured after 15 mins by BRET assay relative to 5-HT; conditions: filed as modulator, time 75.0 min
T1 sequence (P28223 whole entry): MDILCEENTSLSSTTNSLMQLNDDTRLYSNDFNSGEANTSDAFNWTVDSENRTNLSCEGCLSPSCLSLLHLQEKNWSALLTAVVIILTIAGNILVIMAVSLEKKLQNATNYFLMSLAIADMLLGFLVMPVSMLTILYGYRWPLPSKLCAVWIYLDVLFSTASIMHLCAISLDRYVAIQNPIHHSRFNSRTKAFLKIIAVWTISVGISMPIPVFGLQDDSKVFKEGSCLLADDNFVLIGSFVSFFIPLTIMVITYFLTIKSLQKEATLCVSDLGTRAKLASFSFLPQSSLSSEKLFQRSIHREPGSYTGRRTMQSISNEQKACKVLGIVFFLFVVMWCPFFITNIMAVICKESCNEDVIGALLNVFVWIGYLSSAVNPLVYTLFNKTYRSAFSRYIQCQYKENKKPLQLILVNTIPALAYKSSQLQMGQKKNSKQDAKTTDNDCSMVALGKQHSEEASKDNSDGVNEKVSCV

[2] = biological target: T2, 5-hydroxytryptamine receptor 2B (Homo sapiens, UniProt P41595); test: Modulation of human 5HT2B expressed in HEK293T cells co-transfected with Galphaq-RLuc8, Ggamma1-GFP2 and Gbeta1 assessed as dissociation of Galphaq from Ggamma1 preincubated for 1 hr followed by addition of coelenterazine 400a substrate and measured after 15 mins by BRET assay relative to 5-HT; conditions: time 75.0 min
T2 sequence (P41595 whole entry): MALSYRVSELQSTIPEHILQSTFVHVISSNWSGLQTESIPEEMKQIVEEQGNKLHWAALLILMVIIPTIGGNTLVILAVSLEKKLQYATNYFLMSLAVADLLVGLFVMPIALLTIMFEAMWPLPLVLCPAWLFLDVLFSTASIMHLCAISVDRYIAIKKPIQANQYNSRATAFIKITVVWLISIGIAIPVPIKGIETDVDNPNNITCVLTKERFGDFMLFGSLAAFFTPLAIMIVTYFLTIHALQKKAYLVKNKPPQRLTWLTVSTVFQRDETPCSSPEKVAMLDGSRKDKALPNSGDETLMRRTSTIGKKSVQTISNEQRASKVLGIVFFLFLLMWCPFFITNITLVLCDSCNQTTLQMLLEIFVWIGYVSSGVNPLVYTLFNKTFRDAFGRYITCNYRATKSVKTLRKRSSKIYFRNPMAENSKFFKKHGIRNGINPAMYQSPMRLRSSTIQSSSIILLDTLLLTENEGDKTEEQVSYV

[3] = biological target: T3, 5-hydroxytryptamine receptor 2C (Homo sapiens, UniProt P28335); test: Modulation of human 5HT2C expressed in HEK293T cells co-transfected with Galphaq-RLuc8, Ggamma1-GFP2 and Gbeta1 assessed as dissociation of Galphaq from Ggamma1 preincubated for 1 hr followed by addition of coelenterazine 400a substrate and measured after 15 mins by BRET assay
T3 sequence (P28335 whole entry): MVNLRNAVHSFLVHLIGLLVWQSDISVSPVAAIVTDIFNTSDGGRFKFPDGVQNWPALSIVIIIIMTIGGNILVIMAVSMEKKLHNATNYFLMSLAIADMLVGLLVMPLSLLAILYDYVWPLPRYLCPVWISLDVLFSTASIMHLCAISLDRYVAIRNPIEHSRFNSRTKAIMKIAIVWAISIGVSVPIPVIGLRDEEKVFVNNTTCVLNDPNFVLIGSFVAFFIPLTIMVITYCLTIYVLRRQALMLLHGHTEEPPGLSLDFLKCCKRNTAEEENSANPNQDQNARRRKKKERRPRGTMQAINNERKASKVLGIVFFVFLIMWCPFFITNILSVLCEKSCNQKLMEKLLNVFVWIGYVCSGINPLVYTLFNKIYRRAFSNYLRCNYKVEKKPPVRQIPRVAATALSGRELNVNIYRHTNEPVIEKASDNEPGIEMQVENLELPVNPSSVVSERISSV

[4] = biological target: T2, 5-hydroxytryptamine receptor 2B; test: Modulation of human 5HT2B expressed in HEK293T cells co-transfected with Galphaq-RLuc8, Ggamma1-GFP2 and Gbeta1 assessed as dissociation of Galphaq from Ggamma1 preincubated for 1 hr followed by addition of coelenterazine 400a substrate and measured after 15 mins by BRET assay
[5] = biological target: T1, 5-hydroxytryptamine receptor 2A; test: Modulation of human 5HT2A expressed in HEK293T cells co-transfected with Galphaq-RLuc8, Ggamma1-GFP2 and Gbeta1 assessed as dissociation of Galphaq from Ggamma1 preincubated for 1 hr followed by addition of coelenterazine 400a substrate and measured after 15 mins by BRET assay

Row | SMILES | Efficacy [1] | Efficacy ([2]; filed as modulator) | IC50 [3] | IC50 ([4]; read-out: IC50) | IC50 [5] | IC50 ([4]; hek293t) | Efficacy [2]
1 | CCN(C)CCc1cn(C)c2cccc(O)c12 | 66% | 44% |  |  |  |  | 
2 | CN(C)CCc1cn(C)c2cccc(O)c12 | 73% | 40% | 9.51 nM | 31.7 nM | 86.3 nM |  | 
3 | CCn1cc(CCN(C)C)c2c(O)cccc21 | 65% |  | 0.9 nM |  | 196 nM | Not Active | 
4 | CN(CCc1cn(C)c2cccc(O)c12)CC1CC1 | 55% |  |  |  |  |  | 19%
5 | CN(C)CCc1cn(CCF)c2cccc(O)c12 | 48% |  | 2.7 nM |  | 188 nM | Not Active | 
6 | CN(C)CCc1cn(CC2CC2)c2cccc(O)c12 | 29% |  |  |  |  | Not Active | 
7 | CN(C)CCc1c[nH]c2cccc(O)c12 | 82% | 63% |  |  |  |  | 
8 | CC(C)N(C)CCc1cn(C)c2cccc(O)c12 | 85% | 83% |  |  |  |  | 
